Test results published in publication PMC5578959, “Selective LRRK2 kinase inhibition reduces phosphorylation of endogenous Rab10 and Rab12 in human peripheral mononuclear blood cells” (Scientific Reports, 2017).

Tests used:
LRRK2-pSer935 = molecular target: T1, LRRK2-pSer935 (Homo sapiens, UniProt Q5S007); experiment: Acute inhibition, Western Blot, non-stimulated human PBMCs; assay type: cell-based
T1 construct: human primary cells expressing endogenous levels of LRRK2; endogenous in cells; host or cells: human PBMCs from healthy donors
T1 sequence (Q5S007 whole entry): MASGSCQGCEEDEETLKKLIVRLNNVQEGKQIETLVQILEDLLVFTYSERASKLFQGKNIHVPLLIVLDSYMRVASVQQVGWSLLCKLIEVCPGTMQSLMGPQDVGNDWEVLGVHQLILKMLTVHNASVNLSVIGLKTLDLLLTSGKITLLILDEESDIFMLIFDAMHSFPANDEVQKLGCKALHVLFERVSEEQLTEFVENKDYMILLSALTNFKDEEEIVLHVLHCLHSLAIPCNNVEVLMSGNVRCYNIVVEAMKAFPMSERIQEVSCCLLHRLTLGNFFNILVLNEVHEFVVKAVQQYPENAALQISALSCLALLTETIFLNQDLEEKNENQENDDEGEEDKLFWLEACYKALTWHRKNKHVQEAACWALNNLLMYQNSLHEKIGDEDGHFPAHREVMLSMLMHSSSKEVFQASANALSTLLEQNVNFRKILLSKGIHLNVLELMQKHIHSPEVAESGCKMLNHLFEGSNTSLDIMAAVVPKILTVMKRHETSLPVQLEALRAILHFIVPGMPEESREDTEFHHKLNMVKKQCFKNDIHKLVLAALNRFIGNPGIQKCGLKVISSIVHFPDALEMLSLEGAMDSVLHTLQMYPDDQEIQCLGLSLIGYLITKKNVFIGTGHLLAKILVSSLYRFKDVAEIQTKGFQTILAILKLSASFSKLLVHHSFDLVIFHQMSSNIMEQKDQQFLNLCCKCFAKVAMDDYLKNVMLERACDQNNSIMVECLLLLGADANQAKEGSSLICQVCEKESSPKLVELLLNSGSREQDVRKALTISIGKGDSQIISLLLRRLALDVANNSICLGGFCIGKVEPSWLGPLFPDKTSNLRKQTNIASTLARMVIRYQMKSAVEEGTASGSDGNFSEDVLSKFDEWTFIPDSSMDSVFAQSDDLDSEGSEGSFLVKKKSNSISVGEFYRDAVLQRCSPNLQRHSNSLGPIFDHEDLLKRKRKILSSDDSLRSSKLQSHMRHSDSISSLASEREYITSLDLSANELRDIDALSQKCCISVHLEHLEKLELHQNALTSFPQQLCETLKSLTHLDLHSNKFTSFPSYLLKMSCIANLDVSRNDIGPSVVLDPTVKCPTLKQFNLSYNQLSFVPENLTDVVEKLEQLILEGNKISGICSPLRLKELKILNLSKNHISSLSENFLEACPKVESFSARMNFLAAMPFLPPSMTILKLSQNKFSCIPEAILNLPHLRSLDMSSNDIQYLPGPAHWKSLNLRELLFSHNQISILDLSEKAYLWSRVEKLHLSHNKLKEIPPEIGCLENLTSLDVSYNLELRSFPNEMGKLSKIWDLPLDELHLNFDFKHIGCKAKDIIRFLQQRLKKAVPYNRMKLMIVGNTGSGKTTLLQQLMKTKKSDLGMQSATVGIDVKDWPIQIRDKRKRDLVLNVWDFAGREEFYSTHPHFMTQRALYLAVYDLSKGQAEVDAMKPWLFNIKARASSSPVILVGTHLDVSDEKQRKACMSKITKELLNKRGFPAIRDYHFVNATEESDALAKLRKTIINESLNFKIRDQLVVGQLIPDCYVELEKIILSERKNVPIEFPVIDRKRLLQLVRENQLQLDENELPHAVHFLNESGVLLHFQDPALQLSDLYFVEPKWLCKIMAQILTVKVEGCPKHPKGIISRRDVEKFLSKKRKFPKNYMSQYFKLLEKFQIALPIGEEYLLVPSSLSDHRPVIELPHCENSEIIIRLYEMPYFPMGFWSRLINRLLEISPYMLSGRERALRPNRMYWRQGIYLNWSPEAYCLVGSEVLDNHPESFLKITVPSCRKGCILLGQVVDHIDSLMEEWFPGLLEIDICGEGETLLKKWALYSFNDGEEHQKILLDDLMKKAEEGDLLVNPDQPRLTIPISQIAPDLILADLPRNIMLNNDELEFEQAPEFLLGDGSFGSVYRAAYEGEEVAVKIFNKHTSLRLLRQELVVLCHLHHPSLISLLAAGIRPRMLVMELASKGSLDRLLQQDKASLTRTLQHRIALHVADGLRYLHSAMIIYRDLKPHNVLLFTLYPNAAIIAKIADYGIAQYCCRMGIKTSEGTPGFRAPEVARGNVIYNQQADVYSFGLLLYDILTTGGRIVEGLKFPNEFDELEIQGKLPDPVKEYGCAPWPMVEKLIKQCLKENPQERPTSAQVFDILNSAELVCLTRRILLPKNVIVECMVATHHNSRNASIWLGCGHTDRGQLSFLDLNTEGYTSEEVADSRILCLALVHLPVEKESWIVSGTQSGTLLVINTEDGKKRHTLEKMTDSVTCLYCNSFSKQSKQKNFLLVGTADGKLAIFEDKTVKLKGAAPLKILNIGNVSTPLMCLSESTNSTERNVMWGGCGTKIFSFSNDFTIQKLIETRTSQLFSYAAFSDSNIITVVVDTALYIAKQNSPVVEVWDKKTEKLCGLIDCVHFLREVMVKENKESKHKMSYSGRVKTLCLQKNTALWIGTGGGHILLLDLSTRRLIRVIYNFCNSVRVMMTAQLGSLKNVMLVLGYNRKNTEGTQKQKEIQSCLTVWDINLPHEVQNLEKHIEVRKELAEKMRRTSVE
Description: (§1) HEK293 cells were plated at a density of 1 × 10^6 cells/well in 6-well plates pre-coated for 1 hr at 37 °C with poly-L-lysin. Subsequent to the transient transfection HEK293 cells were harvested using 1 mL cold Phosphate Buffered Saline (PBS) buffer (Invitrogen, California, US) and subsequently centrifuged at 800 g for 2 minutes. Cell pellets were resuspended and solubilized in 100 µL lysis buffer (50 mM Tris hydrochloride, 1 mM magnesium chloride, 1% Triton, 0.1% sodium dodecyl sulfate (SDS), pH 8.0) on ice for 20 minutes and then centrifuged at 20,000 g for 30 minutes at 4 °C. The solubilized crude cell lysate was size mobility separated by SDS-polyacrylamide gel electrophoresis (SDS-PAGE). LRRK2 was separated on a 3–8% Tris-Acetate gel (NuPAGE® Tris-Acetate Mini Gels, Life Technologies, Paisley, UK) and Rab10 and Rab12 were separated using a NuPAGE® Novex 4–12% Bis-Tris Gel (Invitrogen, California, US). An amount of 10 µg total protein was loaded in each well. Proteins were transferred to immobilon-FL PVDF membranes (Millipore, Billerica, US). Membranes were incubated with primary antibodies overnight at 4 °C: mouse monoclonal [N241A/34] anti-LRRK2 antibody (1:2,000; NeuroMab, California, US), rabbit monoclonal [UDD2 10(12)] anti-pS935-LRRK2 antibody (1:1,000; RabMAb®, Abcam, Cambridge, UK), mouse anti-HA monoclonal antibody [clone HA-7] (1:10,000; Santa Cruz Biotechnology, Texas, US), rabbit anti-Rab10-pThr73 polyclonal [#5981] (1:2,000; H. Lundbeck A/S, DK) and rabbit anti-Rab12-Ser106 polyclonal antibody [#5919] (1:5,000; H. Lundbeck A/S, DK). Subsequently, the membranes were washed and incubated with secondary antibodies for 1 hour at room temperature: Anti-rabbit IgG F(c) (GOAT) antibody IRDye® 800CW Conjugated (1:10,000; Rockland Immunochemicals Inc., Gilbertsville, US) and anti-mouse Alexa Fluor® 680 Goat anti-mouse IgM (1:20,000; Life Technologies, Paisley, UK). The proteins were visually detected by infrared imaging using Odyssey CLx (LI-COR, Nebraska, US). Membranes were scanned and band intensities were quantified using the Image Studio version 3.1.4 (LI-COR, Nebraska).
(§2) PBMCs were isolated using the density gradient medium, Lymphoprep™ from Stemcell Technologies (Vancouver, Canada) following their standard protocol. Briefly, 4 ml blood was diluted with 4 ml PBS and applied at the SepMate™ tubes (Stemcell Technologies) and spun at 1200xg for 20 min at RT in the centrifuge without brakes. The PBMC layer was collected and spun at 600xg for 8 min and washed two times in PBS by spinning at 600xg between each wash. After the last wash, the cells were counted and the cellular concentration was adjusted to 50 × 10^6 cells/ml in PBS. Donor samples were treated with the LRRK2 inhibitor PFE-360 for one hour and the cells were hereafter lysed by adding 1/10 volume lysis buffer (5% Triton-X, 5% Digitonin, 10 mM EDTA) containing phosphatase and protease inhibitor cocktail (Roche Diagnostics, Mannheim, Germany). The lysates from human PBMCs were subjected to SDS-PAGE and Western Blotting procedures as described above.

Rab10-pThr73 = experiment: as above; assay type: cell-based
Description: as §1, §2

ATR = system: T2, ATR; experiment: KiNativ profiling in human PBMCs; assay type: binding; settings: ATP
T2 construct: purchased ActivX Technologies (KiNativ)

BLK = system: T3, BLK; experiment: KiNativ profiling in human PBMCs; assay type: binding; settings: Activation Loop
T3 construct: purchased ActivX Technologies (KiNativ)

FYN = system: T4, FYN; experiment: KiNativ profiling in human PBMCs; assay type: binding; settings: Lys1
T4 construct: purchased ActivX Technologies (KiNativ)

MAP2K1 = system: T5, MAP2K1; experiment: KiNativ profiling in human PBMCs; assay type: binding; settings: Lys2
T5 construct: purchased ActivX Technologies (KiNativ)

MAP2K2 = system: T6, MAP2K2; experiment: KiNativ profiling in human PBMCs; assay type: binding; settings: Lys2
T6 construct: purchased ActivX Technologies (KiNativ)

p38b = system: T7, p38b; experiment: KiNativ profiling in human PBMCs; assay type: binding; settings: Protein Kinase Domain
T7 construct: purchased ActivX Technologies (KiNativ)

PDHK1 = system: T8, PDHK1; experiment: KiNativ profiling in human PBMCs; assay type: binding; settings: ATP
T8 construct: purchased ActivX Technologies (KiNativ)

PEK = system: T9, PEK; experiment: KiNativ profiling in human PBMCs; assay type: binding; settings: Lys2
T9 construct: purchased ActivX Technologies (KiNativ)

PHKg2 = system: T10, PHKg2; experiment: KiNativ profiling in human PBMCs; assay type: binding; settings: Lys1
T10 construct: purchased ActivX Technologies (KiNativ)

PIP4K2B = system: T11, PIP4K2B; experiment: KiNativ profiling in human PBMCs; assay type: binding; settings: ATP
T11 construct: purchased ActivX Technologies (KiNativ)

ROCK1, ROCK2 = experiment: KiNativ profiling in human PBMCs; assay type: binding; settings: Lys2
SRPK1 = system: T12, SRPK1; experiment: KiNativ profiling in human PBMCs; assay type: binding; settings: Lys2
T12 construct: purchased ActivX Technologies (KiNativ)

TEC = system: T13, TEC; experiment: KiNativ profiling in human PBMCs; assay type: binding; settings: Activation Loop
T13 construct: purchased ActivX Technologies (KiNativ)

TGFbR2 = system: T14, TGFbR2; experiment: KiNativ profiling in human PBMCs; assay type: binding; settings: Lys2
T14 construct: purchased ActivX Technologies (KiNativ)

[1] = 2 µM, 1hr, non-stimulated PBMCs, n = 6 donors
[2] = non-stimulated human PBMCs, 1 hour, n = 3

Compound: Cn1cc(-c2c[nH]c3ncnc(N4CCOCC4)c23)cc1C#N [PFE-360]
- LRRK2 inhibition (LRRK2-pSer935; 2 µM, 1hr, non-stimulated PBMCs): full LRRK2 inhibition
- LRRK2-pSer935 levels vs PBS-treated PBMC samples (LRRK2-pSer935; [1]): significantly lower
- IC50 (LRRK2-pSer935; [2]): 0.024 µM
- pIC50 ± SEM, LRRK2-pSer935 (LRRK2-pSer935; [2]): 7.6 ± 0.3 (n = 3)
- Rab10-pThr73 levels vs PBS-treated PBMC samples (Rab10-pThr73; [1]): significantly lower
- IC50 (Rab10-pThr73; [2]): 0.012 µM
- pIC50 ± SEM, Rab10-pThr73 (Rab10-pThr73; [2]): 7.9 ± 0.3 (n = 3)
- % Inhibition (ATR; 0.1µM): -25.8%
- % Inhibition (ATR; 1µM): 10.7%
- % Inhibition (BLK; 0.1µM): 12.4%
- % Inhibition (BLK; 1µM): -11.6%
- % Inhibition (FYN; 0.1µM): -23.9%
- % Inhibition (FYN; 1µM): -19%
- % Inhibition (MAP2K1; 0.1µM): -25.9%
- % Inhibition (MAP2K1; 1µM): 6.5%
- % Inhibition (MAP2K2; 0.1µM): -11.4%
- % Inhibition (MAP2K2; 1µM): 20.4%
- % Inhibition (p38b; 0.1µM): 3.5%
- % Inhibition (p38b; 1µM): 7%
- % Inhibition (PDHK1; 0.1µM): -3.7%
- % Inhibition (PDHK1; 1µM): -3%
- % Inhibition (PEK; 0.1µM): 10.6%
- % Inhibition (PEK; 1µM): 17.3%
- % Inhibition (PHKg2; 0.1µM): -21.5%
- % Inhibition (PHKg2; 1µM): -15.8%
- % Inhibition (PIP4K2B; 0.1µM): 6.9%
- % Inhibition (PIP4K2B; 1µM): 22.6%
- % Inhibition (ROCK1, ROCK2; 0.1µM): -31.8%
- % Inhibition (ROCK1, ROCK2; 1µM): -10.7%
- % Inhibition (SRPK1; 0.1µM): 12.7%
- % Inhibition (SRPK1; 1µM): -13.2%
- % Inhibition (TEC; 0.1µM): -3.8%
- % Inhibition (TEC; 1µM): 9.2%
- % Inhibition (TGFbR2; 0.1µM): -5.4%
- % Inhibition (TGFbR2; 1µM): -16.3%
